Laboratory results taken from patent publication US5142095A, “Diarylalkanoids having activity as lipoxygenase inhibitors” (Warner-Lambert Company, priority 1989, dated 1992).

Assays:
5-lipoxygenase = target: T1, 5-lipoxygenase (Homo sapiens, UniProt P09917); assay: 5-Lipoxygenase Assay Using Isolated Human Leukocytes (5LOA2), 5-HETE formation; assay type: cell-based; conditions: for IC50: 50% inhibition of 5-HETE formation in human leukocytes, 20 μM arachidonic acid, 10 μM A23187, read-out: 5-LOA IC50; for inhibition at 20 µM: read-out: 5-LOA % inhibition at 20 μM
T1 construct: endogenous in cells; host or cells: leukocytes isolated from fresh human blood
T1 sequence (P09917 1-674): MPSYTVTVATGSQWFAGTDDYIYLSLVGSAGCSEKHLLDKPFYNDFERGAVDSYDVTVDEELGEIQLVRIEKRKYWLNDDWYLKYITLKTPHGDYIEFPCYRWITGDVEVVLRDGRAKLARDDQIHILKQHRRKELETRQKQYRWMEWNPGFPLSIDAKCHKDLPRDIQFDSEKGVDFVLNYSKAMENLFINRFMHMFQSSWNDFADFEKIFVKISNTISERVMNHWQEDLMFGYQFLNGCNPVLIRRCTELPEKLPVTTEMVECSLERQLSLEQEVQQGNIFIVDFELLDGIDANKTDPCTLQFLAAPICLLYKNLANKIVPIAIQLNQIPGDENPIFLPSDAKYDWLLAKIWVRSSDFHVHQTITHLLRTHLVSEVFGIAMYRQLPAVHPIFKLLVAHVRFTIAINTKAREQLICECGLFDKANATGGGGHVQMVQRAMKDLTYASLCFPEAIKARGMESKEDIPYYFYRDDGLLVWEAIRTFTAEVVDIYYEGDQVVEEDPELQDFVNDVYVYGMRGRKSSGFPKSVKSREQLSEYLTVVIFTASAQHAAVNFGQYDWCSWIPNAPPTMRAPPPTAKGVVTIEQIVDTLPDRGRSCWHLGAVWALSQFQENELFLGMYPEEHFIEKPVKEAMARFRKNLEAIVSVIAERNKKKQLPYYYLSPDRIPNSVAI
Protocol: 5-Lipoxygenase Assay Using Isolated Human Leukocytes (5LOA2)
The formation of 5-HETE in human leukocytes is considered a measure of 5-lipoxygenase activity. The protocol is described in the following.
Fresh heparinized or EDTA treated human blood is mixed with 6% dextran-3% dextrose in isotonic saline in the ratio 0.25 ml dextran solution per 1.0 ml blood. After mixing the blood is allowed to sit at room temperature for about 90 minutes while the RBC's settle. During this period, the plasma is removed with a plastic pipette to nalgens tubes.
The plasma is centrifuged at 800 rpm ([…]) on the Beckman Td-b refrigerated centrifuge to remove the platelets (which remain in the supernatant). The pellet, consisting of leukocytes and erythrocytes, is treated with 10 ml 0.87% ammonium chloride at room temperature for four minutes, lysing the red cells. At the end of four minutes the cells are diluted with a 2× volume of phosphate buffered saline, pH 7.4, and centrifuged for ten minutes. The cells are washed three times with the phosphate buffered saline. Any of the pelleted cell matter which is not easily resuspended is discarded during the washings--the material contains platelets (12-lipoxygenase activity).
After washing, the cells are resuspended in phosphate buffered saline containing 1.0 mM calcium and 0.5 mM magnesium. After counting, the cells are diluted to 1.5-2.0×10^-7 leukocytes per milliliter.
To each poly propylene reaction tube is added 0.48 ml leukocytes in Ca-Mg phosphate buffered saline, pH 7.4; 1-5 μl test compound dissolved in DMSO and buffer; or DMSO for control tubes.
The tubes preincubate at 37° C. for five minutes.
The reaction is started by adding 20 μl of the following, 0.5 μl, 20 mM arachidonic acid--final concentration =20 μm; 1 μl, 5 mM calcium ionophore A23187--final concentration =10 μm; and 18.5 μl buffer.
The reaction proceeds for five minutes, then is stopped by adding 0.5 ml, 0.5 mM ice cold Tris buffer, pH 8.0. The tubes are chilled on ice for ten minutes and then extracted three times with a total of 3.5 ml ethyl acetate (3.0 ml removed).
The tubes can be stored at this point. For extended storage, the tubes should be filled with nitrogen.
The ethyl acetate is evaporated with a Sorvall Speed-Vac. The residue is dissolved in ethanol. The tubes can also be stored at this point at -20° C. under nitrogen.
A portion of the ethanol solution is injected into the HPLC system for 5-HETE quantitation.
The HPLC system consists of Hewlett-Packard 1040A UV spectrophotometry system with an HP85 computer. Injections are made automatically with a Waters WISP 710B. The pump is a Spectra Physics SP8700. Peaks are measured with a Hewlett Packard 3390A integrator. An RP C-18 column is used. The solvent system is isocratic; the solvent is 70% methanol and 30% 0.01M sodium acetate, pH 5.7, pumped at 1.0 ml/min. The flow is monitored at 235 nm for 5-HETE quantitation. Using a 15 cm Alltech Nucleosil C-18 5 μM column provides for a sample turnaround time of about 16 minutes.
IC50 is calculated as the amount of test agent that causes 50% inhibition of the formation of 5-HETE relative to the control.

Cyclooxygenase = target: T2, Cyclooxygenase (Bos taurus, UniProt O62664); assay: Cyclooxygenase Enzyme Assay (BSV), bovine seminal vesicle powder, PGE2 formation; assay type: biochemical; conditions: 100 μM arachidonic acid, 20 minutes
T2 construct: The assay consists of incubating 2 mg bovine seminal vesicle powder; from tissue; host or cells: bovine seminal vesicle powder
T2 sequence (O62664 25-600): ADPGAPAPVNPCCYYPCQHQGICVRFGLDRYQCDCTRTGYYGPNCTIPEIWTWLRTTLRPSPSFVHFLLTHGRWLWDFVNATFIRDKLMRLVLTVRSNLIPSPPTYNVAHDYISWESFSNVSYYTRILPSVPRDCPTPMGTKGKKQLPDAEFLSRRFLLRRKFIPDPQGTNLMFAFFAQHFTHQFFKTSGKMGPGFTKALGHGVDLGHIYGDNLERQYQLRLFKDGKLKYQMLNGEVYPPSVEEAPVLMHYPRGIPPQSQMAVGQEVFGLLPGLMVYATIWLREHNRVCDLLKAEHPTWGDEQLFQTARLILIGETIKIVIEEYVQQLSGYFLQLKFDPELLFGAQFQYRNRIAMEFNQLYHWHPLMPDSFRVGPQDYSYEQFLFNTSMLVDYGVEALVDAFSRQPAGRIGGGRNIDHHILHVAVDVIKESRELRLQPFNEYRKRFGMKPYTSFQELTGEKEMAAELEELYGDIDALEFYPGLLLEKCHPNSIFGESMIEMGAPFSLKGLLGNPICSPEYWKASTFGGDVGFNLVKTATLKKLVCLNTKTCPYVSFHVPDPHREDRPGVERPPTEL
Protocol: Cyclooxygenase Enzyme Assay (BSV) […]
The assay consists of incubating 2 mg bovine seminal vesicle powder with 2 mM epinephrine, 2.5 mM reduced glutathione, 100 μM arachidonic acid, and the test agent for 20 minutes. The reaction mixture is acidified and extracted with ethyl acetate (3×1.0 ml) and the pooled extract is evaporated to dryness using a Speed Vac Concentrator or under a stream of nitrogen. The residue is dissolved in ethanol An aliquot is applied on 20×20 cm silica gel plate and developed using water:ethyl acetate:hexane:acetic acid (60:54:25:12.5, upper phase) to separate PGE2 from arachidonic acid. ^14 C-PGE2 formed is identified by co-chromatography with authentic ^3 H-PGE2 and the amount of radioacitvity is quantitated using an automatic TLC linear scanner (Berthold, Pittsburgh, Pa.) linked to an Apple II-e computer and an ICso is calculated as the amount of test agent causing 50% inhibition of Cyclooxygenase Enzyme relative to the control.

`O=C(/C=C/c1ccc(O)c(O)c1)CCCCc1ccccc1` [Example 2, 1-(3,4-dihydroxyphenyl)-7-phenyl-1-hepten-3-one] was tested. Which IC50 (5-lipoxygenase) did it give?
The IC50 was 1.7 µM.

How did the IC50 (5-lipoxygenase) turn out when `O=C(/C=C/c1ccc(O)c(O)c1)CCCc1ccccc1` [Example 8] was run?
The IC50 was 2 µM.

For `O=C(/C=C/c1ccc(O)cc1)CCCCc1ccccc1` [Example 3], which inhibition at 20 µM (5-lipoxygenase) is on record?
Its inhibition at 20 µM is 30%.

For `O=C(/C=C/c1ccc(O)c(Cl)c1)CCc1ccccc1` [Example 11], which IC50 (Cyclooxygenase) is on record?
Its IC50 is 110 µM.

What about the IC50 (5-lipoxygenase) of the same compound?
The IC50 was 22 µM.

For `OCc1cc(/C=C/C(CCc2ccccc2)=NO)ccc1O` [Example 22], which IC50 (5-lipoxygenase) is on record?
The IC50 was 35 µM.

For `CON=C(C=Cc1ccc(O)c(OC)c1)CCCCc1ccccc1` [Example 26, 1-(4-Hydroxy-3-methoxyphenyl)-7-phenyl-1-hepten-3-one, O-methyl oxime], which IC50 (5-lipoxygenase) is on record?
Its IC50 is 3 µM.

Which results are given for `COc1cc(/C=C/C(CCCCc2ccccc2)=NO)ccc1O` [Example 17, 1-Hepten-3-one, 1-(4-hydroxy-3-methoxyphenyl)-7-phenyl, oxime]?
IC50 (Cyclooxygenase): 23 µM; IC50 (5-lipoxygenase): 1.7 µM

Which IC50 (5-lipoxygenase) does the source give for `COc1ccc(/C=C/C(CCCCc2ccccc2)=NO)cc1O` [Example 18] here?
Its IC50 is 5.9 µM.

What does the source list for `COc1cc(C=CC(COc2ccccc2)=NO)ccc1O` [Example 24, 1-(4-Hydroxy-3-methoxyphenyl)-4-phenoxy-1-buten-3-one oxime]?
IC50 (Cyclooxygenase): 57 µM; IC50 (5-lipoxygenase): 2.5 µM

What does the source list for `COc1cc(/C=C/C(=O)CCc2ccccc2)ccc1O` [Example 9]?
IC50 (Cyclooxygenase): 31 µM; IC50 (5-lipoxygenase): 15 µM

Which results are given for `O=C(/C=C/c1ccc(O)c([N+](=O)[O-])c1)CCc1ccccc1` [Example 12, 1-Pentene-3-one, 1-(4-hydroxy-3-nitrophenyl)-5-phenyl]?
IC50 (Cyclooxygenase): 135 µM; inhibition at 20 µM (5-lipoxygenase): 22%

With `Nc1cc(/C=C/C(CCc2ccccc2)=NO)ccc1O` (single isomer, unassigned) [23 (Isomer B), 1-Penten-3-one, 1-(3-amino-4-hydroxyphenyl)-5-phenyl, oxime] as the compound, how does the IC50 (Cyclooxygenase) read?
The IC50 was 90 µM.

And the IC50 (5-lipoxygenase)?
Its IC50 is 0.26 µM.

With `COc1ccc(C=CC(=O)CCCCc2ccccc2)cc1O` [Example 1, 1-(3-Hydroxy-4-methoxyphenyl)-7-phenyl-1-hepten3-one] as the compound, how does the IC50 (5-lipoxygenase) read?
Its IC50 is 11 µM.

What does the source list for `COc1cc(C=CC(=O)CCc2ccc(O)c(OC)c2)ccc1O` [Example 13, 1-Penten-3-one, 1,5-bis(4-hydroxy-3-methoxyphenyl)]?
IC50 (Cyclooxygenase): 84 µM; IC50 (5-lipoxygenase): 19 µM

With `OCc1cc(/C=C/C(CCCCc2ccccc2)=NO)ccc1O` [Example 20] as the compound, how does the IC50 (5-lipoxygenase) read?
The IC50 was 8.7 µM.

With `COc1cc(C=CC(=O)CSc2ccccc2)ccc1O` [Example 16A, 1-(4-Hydroxy-3-methoxyphenyl)-4-phenylthio-1-butene-3-one] as the compound, how does the IC50 (5-lipoxygenase) read?
Its IC50 is 12 µM.

For `COc1cc(C=CC(=O)CCCOc2ccccc2)ccc1O` [Example 14, 1-(4-Hydroxy-3-methoxyphenyl)-6-phenoxy-1-hexene-3-one], which IC50 (Cyclooxygenase) is on record?
Its IC50 is 31 µM.

What about the IC50 (5-lipoxygenase) of the same compound?
The IC50 was 11 µM.

`COc1cc(/C=C/C(CCc2ccccc2)=NO)ccc1O` [Example 21, 1-Penten-3-one, 1-(4-hydroxy-3-methoxyphenyl)-5-phenyl, oxime] was tested. Which IC50 (Cyclooxygenase) did it give?
The IC50 was 33 µM.

What about the IC50 (5-lipoxygenase) of the same compound?
Its IC50 is 0.42 µM.

How did the IC50 (Cyclooxygenase) turn out when `Nc1cc(/C=C/C(=O)CCc2ccccc2)ccc1O` [Example 15, 1-Pentene-3-one, 1-(3-amino-4-hydroxyphenyl)-5phenyl] was run?
Its IC50 is 169 µM.

And the IC50 (5-lipoxygenase)?
The IC50 was 0.079 µM.

For `O=C(/C=C/c1ccc(C(=O)O)cc1)CCCCc1ccccc1` [Example 6], which inhibition at 20 µM (5-lipoxygenase) is on record?
Its inhibition at 20 µM is 19%.

How did the IC50 (Cyclooxygenase) turn out when `O=C(/C=C/c1ccc(O)c(CO)c1)CCc1ccccc1` [Example 10] was run?
The IC50 was 92 µM.

What about the IC50 (5-lipoxygenase) of the same compound?
The IC50 was 18 µM.

`Nc1cc(/C=C/C(CCc2ccccc2)=NO)ccc1O` (single isomer, unassigned) [23 (Isomer A), 1-Penten-3-one, 1-(3-amino-4-hydroxyphenyl)-5-phenyl, oxime] was tested. Which IC50 (Cyclooxygenase) did it give?
The IC50 was 98 µM.

And the IC50 (5-lipoxygenase)?
Its IC50 is 0.165 µM.

What does the source list for `ON=C(/C=C/c1ccc(O)c(O)c1)CCCCc1ccccc1` [Example 19, 1-Hepten-3-one, 1-(3,4-dihydroxyphenyl)-7-phenyl, oxime]?
IC50 (Cyclooxygenase): 125 µM; IC50 (5-lipoxygenase): 1 µM

How did the IC50 (5-lipoxygenase) turn out when `COc1cc(/C=C/C(=O)CCCc2ccccc2)ccc1O` [Example 7] was run?
The IC50 was 18 µM.

Which results are given for `COc1cc(C=CC(=O)COc2ccccc2)ccc1O` [Example 16, 1(4'-Hydroxy-3'-methoxyphenyl)-4-phenoxy-1-butene-3-one]?
IC50 (Cyclooxygenase): 130 µM; IC50 (5-lipoxygenase): 20 µM

With `COc1cc(C=CC(CCCOc2ccccc2)=NO)ccc1O` [Example 25, 1-(4-Hydroxy-3-methoxyphenyl)-6-phenoxy-1-hexen-3-one oxime] as the compound, how does the IC50 (Cyclooxygenase) read?
The IC50 was 170 µM.

What about the IC50 (5-lipoxygenase) of the same compound?
Its IC50 is 0.71 µM.

Which IC50 (5-lipoxygenase) does the source give for `O=C(/C=C/c1ccc(O)c(Cl)c1)CCCCc1ccccc1` [Example 5] here?
The IC50 was 8.8 µM.

For `O=C(/C=C/c1ccc(O)c(CO)c1)CCCCc1ccccc1` [Example 4], which inhibition at 20 µM (5-lipoxygenase) is on record?
Its inhibition at 20 µM is 17%.
